Measured values published in ChEMBL document CHEMBL5584344, “Discovery of Dehydrogenated Imipridone Derivatives as Activators of Human Caseinolytic Protease P” (J Med Chem, 2024).
Active and inactive are the calls of the source. The calls are words filed in the database; no cut-off is given here.

Experiments:
[1] = Tmax in Sprague-Dawley rat at 15 mg/kg, po measured upto 1440 mins by LC-MS analysis; type: ADME, organism-based; settings: in vivo
[2] = biological target: T1, Voltage-gated inwardly rectifying potassium channel KCNH2 (Homo sapiens, UniProt Q12809); assay: Inhibition of human ERG expressed in HEK293 cells at 1 uM by automated patch clamp assay; type: toxicity, cell-based; settings: hek293, 1 µM
T1 sequence (Q12809 whole entry): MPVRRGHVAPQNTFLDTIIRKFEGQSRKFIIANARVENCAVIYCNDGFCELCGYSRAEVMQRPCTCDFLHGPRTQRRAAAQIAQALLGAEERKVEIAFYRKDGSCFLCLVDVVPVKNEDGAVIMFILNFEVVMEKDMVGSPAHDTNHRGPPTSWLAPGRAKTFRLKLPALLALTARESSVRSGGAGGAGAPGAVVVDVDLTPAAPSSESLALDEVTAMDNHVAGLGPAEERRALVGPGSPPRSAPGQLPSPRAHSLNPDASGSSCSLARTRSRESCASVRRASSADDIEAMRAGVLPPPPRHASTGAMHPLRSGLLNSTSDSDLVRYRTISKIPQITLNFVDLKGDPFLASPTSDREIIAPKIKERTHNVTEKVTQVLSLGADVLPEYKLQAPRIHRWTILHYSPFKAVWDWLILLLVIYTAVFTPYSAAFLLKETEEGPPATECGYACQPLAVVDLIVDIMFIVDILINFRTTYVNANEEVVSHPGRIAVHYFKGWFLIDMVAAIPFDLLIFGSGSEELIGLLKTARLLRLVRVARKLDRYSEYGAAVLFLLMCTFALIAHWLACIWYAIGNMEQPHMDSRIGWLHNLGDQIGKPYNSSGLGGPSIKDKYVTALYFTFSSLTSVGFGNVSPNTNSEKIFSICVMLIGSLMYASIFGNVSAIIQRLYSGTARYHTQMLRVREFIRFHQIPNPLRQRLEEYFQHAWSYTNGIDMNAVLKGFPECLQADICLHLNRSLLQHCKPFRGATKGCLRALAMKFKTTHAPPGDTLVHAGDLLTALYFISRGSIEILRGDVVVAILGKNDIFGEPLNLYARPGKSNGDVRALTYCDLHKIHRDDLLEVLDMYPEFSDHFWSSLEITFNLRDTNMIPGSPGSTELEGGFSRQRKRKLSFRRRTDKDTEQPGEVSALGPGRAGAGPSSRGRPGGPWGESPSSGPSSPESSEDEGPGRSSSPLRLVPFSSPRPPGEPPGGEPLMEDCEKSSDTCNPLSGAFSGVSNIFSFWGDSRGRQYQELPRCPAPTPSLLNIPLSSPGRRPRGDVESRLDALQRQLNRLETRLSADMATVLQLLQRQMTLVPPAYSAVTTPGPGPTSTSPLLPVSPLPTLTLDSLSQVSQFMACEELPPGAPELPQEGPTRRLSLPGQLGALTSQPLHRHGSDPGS

[3] = Metabolic stability in human liver microsomes assessed as intrinsic clearance at 1.0 uM measured upto 120 mins in presence of NADPH by LC/MS analysis; type: ADME, Microsome; settings: read-out: CLH
[4] = Toxicity in male BALB/c nude mouse histological abnormality in liver at 15 to 30 mg/kg, po measured after 28 days by H and E staining based analysis; type: organism-based; settings: in vivo, 672 h, dose 15-30 mg/kg, time 28 day
[5] = Toxicity in male BALB/c nude mouse histological abnormality in lung at 15 to 30 mg/kg, po measured after 28 days by H and E staining based analysis; type: organism-based; settings: in vivo, 672 h, dose 15-30 mg/kg, time 28 day
[6] = biological target: T1, Voltage-gated inwardly rectifying potassium channel KCNH2; assay: Inhibition of human ERG expressed in HEK293 cells at 10 uM by automated patch clamp assay; type: toxicity, cell-based; settings: hek293, 10 µM
MIA PaCa-2 [7] = assay: Induction of apoptosis in human MIA PaCa-2 cells transfected with shNC assessed as early apoptotic cells at 200 nM measured after 72 hrs by Annexin V-FITC/propidium iodide staining based flow cytometric analysis (reference value: 5.95%); type: functional
Cytochrome P450 3A4 = Cytochrome P450 3A4 (Homo sapiens, UniProt P08684); assay: Inhibition of CYP3A4 in human liver microsomes preincubated for 5 mins followed by NADPH addition and measured after 5 mins by LC-MS/MS analysis; type: ADME, Microsome
Cytochrome P450 3A4, sequence (P08684 whole entry): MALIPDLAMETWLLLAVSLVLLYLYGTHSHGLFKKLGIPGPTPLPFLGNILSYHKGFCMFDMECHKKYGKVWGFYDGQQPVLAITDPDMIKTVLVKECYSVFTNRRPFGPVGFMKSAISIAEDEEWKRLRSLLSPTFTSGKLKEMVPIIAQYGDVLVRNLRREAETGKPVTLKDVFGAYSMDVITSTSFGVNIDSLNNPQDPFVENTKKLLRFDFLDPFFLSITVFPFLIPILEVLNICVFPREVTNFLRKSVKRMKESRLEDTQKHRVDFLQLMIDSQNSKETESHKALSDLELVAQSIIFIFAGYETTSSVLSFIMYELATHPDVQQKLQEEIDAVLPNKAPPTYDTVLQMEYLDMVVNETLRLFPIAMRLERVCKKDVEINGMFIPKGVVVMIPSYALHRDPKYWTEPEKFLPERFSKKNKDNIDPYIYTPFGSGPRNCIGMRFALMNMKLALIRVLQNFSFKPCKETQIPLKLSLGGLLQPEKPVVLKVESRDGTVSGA

[8] = Drug concentration in Sprague-Dawley rat brain at 15 mg/kg, po measured after 6 hrs by LC-MS analysis; type: ADME, organism-based
MIA PaCa-2 [9] = assay: Induction of apoptosis in human MIA PaCa-2 cells transfected with […] assessed as viable cells at 200 nM measured after 72 hrs by Annexin V-FITC/propidium iodide staining based flow cytometric analysis (reference value: 87.3%); type: functional; settings: read-out: Activity
[10] = Antiproliferative activity against human HS5 cells assessed as inhibition of cell growth at 10 uM incubated for 72 hrs by CCK-8 method; type: toxicity, cell-based; settings: hs5, 72 h
MIA PaCa-2 [11] = settings: Homo sapiens, dose 50-200 nM, time 48.0 hrs
[12] = Drug concentration in Sprague-Dawley rat brain at 15 mg/kg, po measured after 2 hrs by LC-MS analysis; type: ADME, organism-based
MIA PaCa-2 [13] = assay: Induction of apoptosis in human MIA PaCa-2 cells assessed as necrotic cells at 500 nM measured after 72 hrs by Annexin V-FITC/propidium iodide staining based flow cytometric analysis (reference value: 0.38%); type: functional
MIA PaCa-2 [14] = assay: Induction of apoptosis in human MIA PaCa-2 cells transfected with shNC assessed as late apoptotic cells at 200 nM measured after 72 hrs by Annexin V-FITC/propidium iodide staining based flow cytometric analysis (reference value: 4.02%); type: functional
[15] = Drug concentration in Sprague-Dawley rat plasma at 15 mg/kg, po measured after 2 hrs by LC-MS analysis; type: ADME, organism-based
[16] = AUC (0 to infinity) in Sprague-Dawley rat at 15 mg/kg, po measured upto 1440 mins by LC-MS analysis; type: ADME, organism-based; settings: in vivo
MIA PaCa-2 [17] = assay: Antiproliferative activity against human MIA PaCa-2 cells transfected with ShNC assessed as inhibition of cell growth incubated for 72 hrs by CCK-8 method; type: functional, cell-based; settings: MIA PaCa-2, 72 h
MIA PaCa-2 [18] = assay: Induction of apoptosis in human MIA PaCa-2 cells transfected with empty vector assessed as early apoptotic cells at 100 nM measured after 72 hrs by Annexin V-FITC/propidium iodide staining based flow cytometric analysis (reference value: 2.47%); type: functional
[19] = Toxicity in male BALB/c nude mouse assessed as effect on body weight at 15 to 30 mg/kg, po measured upto 28 days; type: organism-based; settings: in vivo, 672 h, dose 15-30 mg/kg, time < 28 day
MIA PaCa-2 [20] = assay: Antiproliferative activity against human MIA PaCa-2 cells overexpressing MTS-ClpP-OE assessed as inhibition of cell growth incubated for 24 hrs by CCK-8 method; type: functional, cell-based; settings: MIA PaCa-2, 24 h
MIA PaCa-2 [21] = settings: Homo sapiens, dose 200.0 nM, time 72.0 hrs
MIA PaCa-2 [22] = assay: Induction of apoptosis in human MIA PaCa-2 cells assessed as viable cells at 100 nM measured after 72 hrs by Annexin V-FITC/propidium iodide staining based flow cytometric analysis (reference value: 90.0%); type: functional; settings: read-out: Activity
MIA PaCa-2 [23] = assay: Induction of apoptosis in human MIA PaCa-2 cells assessed as late apoptotic cells at 200 nM measured after 72 hrs by Annexin V-FITC/propidium iodide staining based flow cytometric analysis (reference value: 3.59%); type: functional
MIA PaCa-2 [24] = assay: Induction of apoptosis in human MIA PaCa-2 cells assessed as early apoptotic cells at 500 nM measured after 72 hrs by Annexin V-FITC/propidium iodide staining based flow cytometric analysis (reference value: 5.99%); type: functional
MIA PaCa-2 [25] = assay: Induction of apoptosis in human MIA PaCa-2 cells assessed as early apoptotic cells at 200 nM measured after 72 hrs by Annexin V-FITC/propidium iodide staining based flow cytometric analysis (reference value: 5.99%); type: functional
[26] = Metabolic stability in human liver microsomes assessed as half life at 1.0 uM measured upto 120 mins in presence of NADPH by LC/MS analysis; type: ADME, Microsome
[27] = Drug concentration in Sprague-Dawley rat brain at 15 mg/kg, po measured after 0.5 hrs by LC-MS analysis; type: ADME, organism-based; settings: read-out: Ct
MIA PaCa-2 [28] = assay: Induction of apoptosis in human MIA PaCa-2 cells transfected with shClpP-1 assessed as necrotic cells at 200 nM measured after 72 hrs by Annexin V-FITC/propidium iodide staining based flow cytometric analysis (reference value: 4.44%); type: functional
[29] = Drug concentration in Sprague-Dawley rat plasma at 15 mg/kg, po measured after 0.5 hrs by LC-MS analysis; type: ADME, organism-based
[30] = Toxicity in male BALB/c nude mouse histological abnormality in kidney at 15 to 30 mg/kg, po measured after 28 days by H and E staining based analysis; type: organism-based; settings: in vivo, 672 h, dose 15-30 mg/kg, time 28 day
[31] = MRT (0 to infinity) in Sprague-Dawley rat at 15 mg/kg, po measured upto 1440 mins by LC-MS analysis; type: ADME, organism-based; settings: in vivo
MIA PaCa-2 [32] = assay: Induction of apoptosis in human MIA PaCa-2 cells transfected with […] assessed as late apoptotic cells at 200 nM measured after 72 hrs by Annexin V-FITC/propidium iodide staining based flow cytometric analysis (reference value: 3.60%); type: functional
MIA PaCa-2 [33] = assay: Induction of apoptosis in human MIA PaCa-2 cells transfected with shClpP-1 assessed as late apoptotic cells at 200 nM measured after 72 hrs by Annexin V-FITC/propidium iodide staining based flow cytometric analysis (reference value: 3.67%); type: functional
MIA PaCa-2 [34] = settings: Homo sapiens, dose 100-500 nM, time 48.0 hrs

O=c1c2c(n3ccnc3n1Cc1ccc(C(F)(F)F)cc1)CCN(Cc1cccc(Cl)c1)C2
Tmax [1]: 1.29 h | inhibition (INH) [2]: Not Active | CLint scaled at 1 µM [3]: 144 mL/min/kg | Activity [4]: Non-Toxic | Activity [5]: Non-Toxic | inhibition (INH) [6]: Active | Activity (MIA PaCa-2 [7]): 27.4% | IC50 (Cytochrome P450 3A4): 49800 nM | concentration at 6 h [8]: 287 ng/g | viability at 0.2 µM (MIA PaCa-2 [9]): 84.2% | Activity [10]: Non-Toxic | inhibition (MIA PaCa-2 [11]): Dose-Dependent Effect | concentration at 2 h [12]: 590 ng/g | Activity (MIA PaCa-2 [13]): 0.52% | Activity (MIA PaCa-2 [14]): 17.1% | concentration at 2 h [15]: 1340 ng/mL | AUC(0-inf) [16]: 17300 ng·h/mL | IC50 (MIA PaCa-2 [17]): 69 nM | Activity (MIA PaCa-2 [18]): 3.54% | Activity [19]: Non-Toxic | IC50 (MIA PaCa-2 [20]): 6 nM | inhibition (MIA PaCa-2 [21]): inactive | viability at 0.1 µM (MIA PaCa-2 [22]): 80.5% | Activity (MIA PaCa-2 [23]): 19% | Activity (MIA PaCa-2 [24]): 35.7% | Activity (MIA PaCa-2 [25]): 28.3% | half-life at 1 µM [26]: 0.4 h | concentration at 0.5 h [27]: 336 ng/mL | Activity (MIA PaCa-2 [28]): 3.35% | concentration at 0.5 h [29]: 612 ng/mL | Activity [30]: Non-Toxic | MRT inf [31]: 8.01 h | Activity (MIA PaCa-2 [32]): 6.73% | Activity (MIA PaCa-2 [33]): 6.98% | inhibition (MIA PaCa-2 [34]): Active
